Experimental data from US20240238231A1, “EDTA AND EGTA FOR USE IN PRESERVING THE INTEGRITY OF THERAPEUTIC COMPOUNDS” (Axcess (UK) Ltd, priority 2021, published 2024).

Key:
chymotrypsin = conditions: in the presence of calcium ions only, FIG. 4
Description: Experiment 1 was repeated, except that chymotrypsin was employed, instead of trypsin, and the experiment was conducted in the presence of calcium ions only.

[1] = biological target: T1, Trypsin from porcine pancreas (Sus scrofa, UniProt P00761); experiment: Inhibition of trypsin activity, fluorescence microplate assay with Z-L-arginine-4-methyl-7-coumarinylamide substrate; type: biochemical; conditions: for effect on the activity of trypsin: pH 7, 30 minutes
T1 construct: from tissue; host or cells: porcine pancreas
T1 sequence (P00761 9-231): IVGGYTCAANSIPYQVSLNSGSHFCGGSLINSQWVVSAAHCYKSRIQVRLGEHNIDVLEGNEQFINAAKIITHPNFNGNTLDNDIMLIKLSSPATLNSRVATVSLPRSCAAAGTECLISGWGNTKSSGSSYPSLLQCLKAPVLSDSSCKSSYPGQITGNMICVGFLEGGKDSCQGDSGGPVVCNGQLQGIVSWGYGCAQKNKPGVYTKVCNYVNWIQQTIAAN
Description: A dilute solution of phosphate-buffered saline (PBS) was prepared at a concentration of 0.3 mM phosphate (pH7), and used to dissolve calcium chloride dihydrate or magnesium chloride at a concentration of 0.3 mg/ml. Trypsin from porcine pancreas was dissolved in the Ca/PBS buffer, in either the presence or absence of calcium, at a concentration of trypsin at 0.02 mg/ml. 5 ml aliquots of disodium EDTA (dihydrate) solution were prepared in PBS with and without calcium or magnesium at doubling dilutions from 8 mg/ml downwards, and the pH of each solution adjusted to 7. Trypsin substrate (namely Z-L-arginine-4-methyl-7-coumarinylamide HCl) was dissolved in DMSO at a concentration of 0.125 mg/ml, then diluted 100-fold in Ca/PBS buffer. EDTA solutions were dispensed into the wells of a black microplate (60 ul per well) then 10 ul of trypsin solution was added, followed by 10 ul of substrate. The reaction was allowed to proceed for 30 minutes, and the extent of reaction determined in a fluorescence microplate reader by measuring the fluorescence of the reaction product (coumarin) at excitation wavelength 365 nm, emission 440 nm.
A dilute solution of phosphate-buffered saline (PBS) was prepared at a concentration of 0.3 mM phosphate (pH7), and used to dissolve calcium chloride dihydrate at a concentration of 0.3 mg/ml. Trypsin from porcine pancreas was dissolved in the Ca/PBS buffer at a concentration of 0.02 mg/ml trypsin. 5 ml aliquots of disodium EGTA (dihydrate) solution were prepared in PBS at doubling dilutions from 8 mg/ml downwards, and the pH of each solution adjusted to 7. Trypsin substrate (namely Z-L-arginine-4-methyl-7-coumarinylamide HCl) was dissolved in DMSO at a concentration of 0.125 mg/ml, then diluted 100-fold in Ca/PBS buffer. EGTA solutions were dispensed into the wells of a black microplate (60 ul per well) then 10 ul of trypsin solution was added, followed by 10 ul of substrate. The reaction was allowed to proceed for 30 minutes, and the extent of reaction determined in a fluorescence microplate reader by measuring the fluorescence of the reaction product (coumarin) at excitation wavelength 365 nm, emission 440 nm.
A dilute solution of phosphate-buffered saline (PBS) was prepared at a concentration of 0.3 mM phosphate (pH7), and used to dissolve calcium chloride dihydrate at a concentration of 0.3 mg/ml. Trypsin from porcine pancreas was dissolved in the buffer, in either the presence or absence of calcium, at a concentration of 0.02 mg/ml. 5 ml aliquots of disodium EGTA (dihydrate) solution and phenanthroline (Low concentrations of phenanthroline only were employed, because of its limited solubility in aqueous phase) were prepared in PBS with and without calcium at doubling dilutions from 8 mg/ml downwards, and the pH of each solution adjusted to 7. Trypsin substrate (namely Z-L-arginine-4-methyl-7-coumarinylamide HCl) was dissolved in DMSO at a concentration of 0.125 mg/ml, then diluted 100-fold in Ca/PBS buffer. EGTA solutions and phenanthroline were dispensed into the wells of a black microplate (60 ul per well) then 10 ul of trypsin solution was added, followed by 10 ul of substrate. The reaction was allowed to proceed for 30 minutes, and the extent of reaction determined in a fluorescence microplate reader by measuring the fluorescence of the reaction product (coumarin) at excitation wavelength 365 nm, emission 440 nm.

[2] = in combination with / in the presence of calcium (0.3 mg/ml), FIG. 1 and FIG. 3

## O=C(O)CN(CCN(CC(=O)O)CC(=O)O)CC(=O)O [EDTA]
chymotrypsin
  effect on the protease activity of chymotrypsin: inhibitory effect
[1]; EDTA alone (no calcium or magnesium), doubling dilutions from 8 mg/ml, FIG. 1
  effect on the activity of trypsin: significant inhibitory effect
[1]; [2]
  effect on the activity of trypsin: significant inhibitory effect
[1]; in combination with magnesium (0.5 mg/ml), FIG. 1
  effect on the activity of trypsin: significant inhibitory effect

## O=C(O)CN(CCOCCOCCN(CC(=O)O)CC(=O)O)CC(=O)O [EGTA]
[1]; EGTA doubling dilutions from 8 mg/ml, presence and absence of calcium ions, FIG. 2
  effect on the activity of trypsin: inhibitory effect

## O=C(O)CC(O)(CC(=O)O)C(=O)O [citrate, citric acid, reference compound]
[1]; [2]
  effect on the activity of trypsin: no effect

## c1cnc2c(c1)ccc1cccnc12 [phenanthroline, ortho-phenanthroline, reference compound]
[1]; [2]
  effect on the activity of trypsin: no inhibitory effect

## [Zn+2] [zinc]
[1]; metal ion combined with EDTA or EGTA, calcium and magnesium show inhibition
  effect of the metal ion on inhibition of trypsin by EDTA or EGTA: has no such effect
